What was measured:
[1] = Particle size and polydispersity index of nanoparticle compositions (Zetasizer Nano ZS); format: physicochemical
Procedure, shortened: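 Formulations of ionizable lipid, DSPC, cholesterol and PEG-DMG (50:10:38.5:1.5 mol %) carrying Luc or hEPO mRNA with all uridines as N1-methyl pseudouridine. Dynamic light scattering in 1×PBS gave particle size and polydispersity; zeta potential read in 15 mM PBS.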

[2] = Encapsulation efficiency of RNA in nanoparticle compositions (RIBOGREEN assay); format: physicochemical
Procedure, shortened: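 Lipid nanoparticles (ionisable lipid:DSPC:cholesterol:PEG-DMG 50:10:38.5:1.5 mol %) carrying N1-methylpseudouridine luciferase or hEPO mRNA diluted to about 5 μg/mL in TE, pH 7.5, with or without 2% Triton X-100, 15 min at 37° C. RiboGreen fluorescence (ex ~480, em ~520 nm) blank-subtracted; free RNA = intact/disrupted signal.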

luciferase (Luc) mRNA [3] = test: Luciferase expression (whole body bioluminescence) after intravenous administration to mice; format: in vivo; conditions: for Novel lipid/MC3 expression ratio, i.v.: intravenous, luciferase, 6 hr. time point, relative to MC3 formulation; for AUC: intravenous administration (Table 3D)
Procedure, shortened: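 Luc mRNA nanoparticles were given IV at 0.5 mg/kg to groups of six mice, and whole-body bioluminescent flux was imaged 3, 6 and 24 h post-dose. Flux AUC for each lipid formulation was reported as a ratio to the MC3 reference formulation.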

luciferase (Luc) mRNA [4] = test: Luciferase expression after intramuscular administration to mice; format: in vivo; conditions: intramuscular; for Novel lipid/MC3 expression ratio, i.m. Luc: luciferase, 6 hr. time point, relative to MC3 formulation; for Total flux 6 hours after intramuscular administration, 0.01 mpk Dose: Luc mRNA
From the text: The numbers 1-7 in this figure correspond to MC3, Compounds 168-170, and 173-175 respectively.
FIGS. 18A and 18B show the results of luciferase expression measured upon intramuscular administration of various nanoparticle compositions to CD-1 mice at 0.01 mpk. FIG. 18A is a bar graph showing total flux at 6 hr after administration. The numbers above each bar indicate the expression ratio relative to MC3. […] Numbers 1-11 in the Figures refer to compositions containing the following: 1: MC3, 2: Compound 143, 3: Compound 49; 4: Compound 113; 5: Compound 61; 6: Compound 72; 7: Compound 75; 8: Compound 71; 9: Compound 128; 10: Compound 156; 11: Compound 157.
The numbers 1-9 in this figure correspond to MC3, and Compounds 178, 181, 182, 218, 198, 200, 233, and 239, respectively.
The total flux (measured by area under the curve, AUC) induced by administration of a formulation including a given lipid relative to that induced by administration of a formulation including MC3 was also measured for several lipids.
Sample formulations including modified luciferase (Luc) mRNA prepared and administered intramuscularly and the resulting expression and immunogenicity were evaluated simultaneously. Formulations including compounds according to Formula (I), (IA), (IB), (II), (IIa), (IIb), (IIc), (IId), (IIe), (IIf), (IIg), or (III) were prepared and administered at dose of and 0.01 mpk.

modified luciferase = test: Luciferase expression in liver, lung, spleen and femur 6 hours after intravenous administration to mice; format: in vivo; conditions: 6 hours after intravenous 0.5 mpk, mice
Procedure, shortened: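 Mice (n=3) got a single 0.5 mpk IV dose of each nanoparticle composition, with MC3 and PBS controls alongside. Organ luminescence flux was read 6 h post-dose.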

IL-6, IP-10 = test: Cytokine induction (IL-6, IP-10) in mice 6 hours after intravenous administration; format: in vivo; set-up: unit not given here; conditions: intravenous 0.5 mpk
Procedure, shortened: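 IL-6 and IP-10 concentrations determined 6 hours after a single intravenous 0.5 mpk dose of lipid nanoparticle formulation in mice, with MC3 and PBS as comparators.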

[5] = Table 1A, lipid:DSPC:cholesterol:PEG-DMG 50:10:38.5:1.5 mol %
[6] = Table 1E, compositions for subcutaneous administration
[7] = Table 1B, formulated with hEPO mRNA

Structure (SMILES)	Size [1, 5] [nm]	EE [2, 5] [%]	Novel lipid/MC3 expression ratio, i.v. (luciferase (Luc) mRNA [3])	Novel lipid/MC3 expression ratio, i.m. Luc (luciferase (Luc) mRNA [4])	Total Flux, Liver (modified luciferase)	Total Flux, Lung (modified luciferase)	Total Flux, Spleen (modified luciferase)	Cytokine induction, IL-6 (IL-6, IP-10)	Cytokine induction, IP-10 (IL-6, IP-10)	Size [1, 6] [nm]	Total flux 6 hours after intramuscular administration, 0.01 mpk Dose (luciferase (Luc) mRNA [4]) [p/s]	Size [1, 7] [nm]	EE [2, 7] [%]	Size ([1]; Table 1D, compositions for subcutaneous administration, # formulated with hEPO mRNA) [nm]	Size ([1]; Table 1C, compositions for subcutaneous administration) [nm]	AUC (luciferase (Luc) mRNA [3]) [p/s*h]
CCCCCCCCCN(CCCO)CCCCCCCC(=O)OC(CCCCCCCC)CCCCCCCC [Compound 7, Heptadecan-9-yl 8-((3-hydroxypropyl)(nonyl)amino)octanoate]	118.9	86.10	0.88	1.10	2.49E+09	3.95E+07	4.83E+08	116.35	4959.16							
CCCCCCCCCOC(=O)CCCCCCCN(CCO)CCCCCCCCCC(=O)OC(CCCCCCCC)CCCCCCCC [Compound 23, Heptadecan-9-yl 10-((2-hydroxyethyl)(8-(nonyloxy)-8-oxooctyl)amino) decanoate]	104.5	92.68	0.04	0.30				94.00	1015.95	70.5						
CCCCCCCCCOC(=O)CCCCCCCN(CCCCCCCC(=O)OC(CCCCCCCC)CCCCCCCC)CC(O)CO (centres unmarked) [Compound 69, Heptadecan-9-yl 8-((2,3-dihydroxypropyl)(8-(nonyloxy)-8-oxooctyl)amino)octanoate]	77.2		0.30	0.27	2.24E+08	7.34E+05	2.54E+06			71.8	8.83E+06					
CCCCCCCCC(CCCCCCCC)OC(=O)CCCCCCCN(CCO)CCCC(=O)OC(CCCCC)CCCCCCCC (centres unmarked) [Compound 71, Heptadecan-9-yl 8-((2-hydroxyethyl)(4-oxo-4-(tetradecan-6-yloxy)butyl)amino)octanoate]	71	97.54	0.42	0.08	7.93E+08	4.86E+06	8.04E+06									
CCCCCCCCCOC(=O)CCCCCCCN(CCCCCCCC(=O)OC(CCCCCCCC)CCCCCCCC)CCCNS(C)(=O)=O [Compound 109, Heptadecan-9-yl 8-((3-(methylsulfonamido)propyl)(8-(nonyloxy)-8-oxooctyl)amino)octanoate]	81.1		0.35		8.17E+08	6.03E+06	4.81E+07			67.0	1.18E+08	75	98.29			
CCCCCCCCCOC(=O)CCCCCCCN(CCCCCCCC(=O)OC(CCCCCCCC)CCCCCCCC)CCCNC(=S)N(C)C [Compound 111, Heptadecan-9-yl 8-((3-(3,3-dimethylthioureido)propyl)(8-(nonyloxy)-8-oxooctyl)amino)octanoate]	116.7				4.83E+09	2.57E+07	2.44E+08			88.9	1.58E+08	93.3	91.23	94.5		
CCCCCCCCC(C)OC(=O)CCCCCN(CCO)CCCCCCCC(=O)OC(CCCCCCCC)CCCCCCCC (centres unmarked) [Compound 122, Heptadecan-9-yl 8-((6-(decan-2-yloxy)-6-oxohexyl)(2-hydroxyethyl)amino)octanoate]	69.3				2.63E+09	2.77E+07	1.56E+07				9.19E+07	70.2	96.27		80.2	
CCCCCCCCCOC(=O)CCCCCCCN(CCCCCCCC(=O)OC(CCCCCCCC)CCCCCCCC)C(CO)CO [Compound 156, Heptadecan-9-yl 8-((1,3-dihydroxypropan-2-yl)(8-(nonyloxy)-8-oxooctyl)amino)octanoate]	68.1		0.60	0.06	6.51E+08	1.92E+06	1.82E+07									1.170E+011
CCCCCCCCCOC(=O)CCCCCCCN(CCCCCCCC(=O)OC(CCCCCCCC)CCCCCCCC)C(C)CO (centres unmarked) [Compound 157, Heptadecan-9-yl 8-((1-hydroxypropan-2-yl)(8-(nonyloxy)-8-oxooctyl)amino)octanoate]	61	96.04		0.79	2.27E+09	6.70E+06	5.15E+07									2.481E+011
CCCCCCCCCOC(=O)CCCCCCCN(CCCCCCCC(=O)OC(CCCCCCCC)CCCCCCCC)CCCNc1c(N(C)C)c(=O)c1=O [Compound 169, Heptadecan-9-yl 8-((3-((2-(dimethylamino)-3,4-dioxocyclobut-1-en-1-yl)amino)propyl)(8-(nonyloxy)-8-oxooctyl)amino)octanoate]	87.4		0.11	3.3												
CCCCCCCCCOC(=O)CCCCCCCN(CCCCCCCC(=O)OC(CCCCCCCC)CCCCCCCC)CCCN/C(=C/[N+](=O)[O-])NC [Compound 170, Heptadecan-9-yl (E)-8-((3-((1-(methylamino)-2-nitrovinyl)amino)propyl)(8-(nonyloxy)-8-oxooctyl)amino)octanoate]	96.0		0.02	5.3												
CCCCCCCCCOC(=O)CCCCCCCN(CCCCCCCC(=O)OC(CCCCCCCC)CCCCCCCC)CCCNC(=O)OC [Compound 181, Heptadecan-9-yl 8-((3-((methoxycarbonyl)amino)propyl)(8-(nonyloxy)-8-oxooctyl)amino)octanoate]	78.7	88.9	0.27	0.97												
CCCCCCCCCOC(=O)CCCCCCCN(CCCCCCCC(=O)OC(CCCCCCCC)CCCCCCCC)CCCNc1c(NC)c(=O)c1=O [Compound 182, Heptadecan-9-yl 8-((3-((2-(methylamino)-3,4-dioxocyclobut-1-en-1-yl)amino)propyl)(8-(nonyloxy)-8-oxooctyl)amino)octanoate]	84.4	99.0	0.66	6.80												
CCCCCCCCCOC(=O)CCCCCCCN(CCCCCCCC(=O)OC(CCCCCCCC)CCCCCCCC)CCCNC(=O)CO [Compound 198, Heptadecan-9-yl 8-((3-(2-hydroxyacetamido)propyl)(8-(nonyloxy)-8-oxooctyl)amino)octanoate]	84.2	99.5	0	0.52												

— patent US10857105B2, “Compounds and compositions for intracellular delivery of therapeutic agents” (ModernaTX, Inc., priority 2017, dated 2020)
